According to US4405642A, “Method for treatment or prophylaxis of cardiac disorders” (American Hospital Supply Corporation, priority 1980, dated 1983):
Where a name gives a salt, the structure may show the parent alone.

Legend:
[1] = target: T1, β-adrenergic receptors (guinea pig right atria) (Cavia porcellus, UniProt H0W3H1); assay: β-blocking activity in vitro, guinea pig right atria (rate response to isoproterenol); type: cell-based; conditions: vs isoproterenol, guinea pig right atria, 60 minute incubation, 37° C.; for Kb: read-out: pA2 Atria (converted)
T1 construct: Atria were allowed to beat spontaneously under a loading tension; from tissue; host or cells: guinea pig right atria (isolated, spontaneously beating)
Method: (§1) Each tissue was suspended between a fixed glass rod and a Statham® Universal Transducer connected to a Beckman® recorder. Atria were allowed to beat spontaneously under a loading tension of approximately 0.5 gm. Instrinsic depressant or stimulant activity was determined for each compound by progressively increasing concentrations in the tissue baths at 60-minute intervals. Tissues were not washed between increments. The maximum concentration showing little or no cardiodepressant activity was chosen for blockade experiments. Changes in rate in response to isoproterenol were measured in the absence and presence of test compounds. Spiral strips of guinea pig trachea were suspended under 5 gm resting tension and incubated with phentolamine, tropolone and cocaine. Active tension was generated by addition of carbachol (3.0×10^-7 M) and decreases in tension in response to isoproterenol were quantitated. Cumulative concentration-response curves were produced with isoproterenol both before and after 60 minute incubation of test compounds with atria and trachea. The blocking potency of test compounds was estimated by computing pA2 values (-log […]) by the method of Furchgott, The Pharmacological Differentiation of Adrenergic Receptors, Ann. […] The degree of cardioselectivity was estimated from the ratio, KB trachea/KB atria (10^(pA.sbsp.2^atria-pA.sbsp.2^trachea)). A ratio greater than one indicates cardioselectivity. Test drugs were dissolved in distilled water and added to the bath (30 ml) in a volume of 10 or 100 μl.

[2] = tested on: β-adrenergic receptors (guinea pig right atria); assay: as above; type: cell-based; conditions: ratio from pA2 atria and trachea; greater than one indicates cardioselectivity
Method: as §1

[3] = target: T2, β-adrenergic receptors (guinea pig tracheal strips) (Cavia porcellus, UniProt Q8K4Z4); assay: β-blocking activity in vitro, guinea pig tracheal strips (tension response to isoproterenol); type: cell-based; conditions: vs isoproterenol, 60 minute incubation, 37° C.; for Kb: read-out: pA2 Trachea (converted)
T2 construct: from tissue; host or cells: guinea pig trachea (isolated spiral strips)
Method: as §1

[4] = tested on: heart rate response to isoproterenol; assay: Duration of beta-blockade in vivo, anesthetized dogs, 40-minute infusion; design: species or system dog; conditions: for Recovery Times 50%: 50% recovery of heart rate after 40-minute infusion; for Recovery Times 50% / Recovery Times 80% / Recovery Times 100%: normalized to 50% inhibition, dog; for Recovery Times 80%: 80% recovery of heart rate after 40-minute infusion; for Recovery Times 100%: 100% recovery of heart rate after 40-minute infusion; for ED50: Canis lupus familiaris, iv, 40 min, read-out: Potency
Method: (§2) The duration of beta-blockade was determined in vivo using pentobarbitalanesthetized dogs instrumented for measurement of heart rate using a Beckman® cardiotachometer triggered electronically by a phasic aortic blood pressure signal. Both vagus nerves were severed in the cervical region and the animals were mechanically ventilated. Two experimental designs were used. The first employed a 40-minute infusion of test compound and the second used a 3-hour infusion of test compound. In the 40-minute model, isoproterenol was infused into a foreleg vein at the rate of 0.5 μg/kg/min to induce a beta-receptor mediated tachycardia. Various doses of test compound where then infused into a femoral vein over a period of 40 minutes. This infusion was then terminated and recovery from blockade was quantitated. […] This cumulative dose is expressed as mg/kg and is an indication of potency. The time period required for 80% recovery of heart rate for each dose of test drug was also measured to quantitate duration of action. […] Test compounds were dissolved in 0.9% NaCl and infused at a rate of 0.05 ml/kg/min or less. In the 3-hour infusion model, bolus doses of isoproterenol (0.5 μg/kg) were used to assess the degree of beta-blockade and recovery from beta-blockade after termination of the infusion. The doses were spaced at 10-minute intervals and were given before, during and following the infusion of test compounds. The infusion rate was adjusted so that at the end of the 3-hour infusion period the degree of isoproterenol inhibition averaged about 50% of control.

[5] = tested on: heart rate response to isoproterenol; assay: Duration of beta-blockade in vivo, anesthetized dogs, 3-hour infusion; conditions: dog; for 80% Recovery Time: after termination of 3-hour infusion; for % I (Percent inhibition of heart rate response to isoproterenol): end of 3-hour infusion, bolus isoproterenol 0.5 μg/kg
Method: as §2

[6] = Disappearance in vitro in human whole blood; type: in vitro ADME; conditions: 50 μg test compound, 37° C., read-out: T1/2 Human Whole Blood
Method: (§3) The rate of disappearance of a compound is expressed as the half-life (T1/2), which is the time period in which one half of the initial amount of compound tested disappears. […] The samples were incubated in a Dubnoff shaking metabolic incubator for 2.5, 5.0, 10.0, 20.0, 30.0 and 60.0 minutes at 37° C. At the designated time periods, the test mixtures were removed from the incubator and transferred to a 0° C. ice bath. Acetonitrile (2 ml) was immediately added and the mixtures were mixed to stop enzymatic hydrolysis. Zero time samples were prepared by adding 2 ml. of acetonitrile to denature the proteins prior to addition of the test compounds. After centrifugation to sediment denatured proteins, 2 ml. of the supernatant was removed and analyzed by high pressure liquid chromatography, using a mobile phase of 60% acetonitrile/40% 0.05 m sodium phosphate buffer (pH 6.6), a U.V. detector and Waters® μ Bondapak Phenyl column. The half life of each test compound was determined graphically by plotting the decrease in concentration as a function of time.

[7] = Disappearance in vitro in dog whole blood; type: in vitro ADME; conditions: 50 μg test compound, 37° C., read-out: T1/2 Dog Whole Blood
Method: as §3

[8] = Disappearance in vitro in dog liver homogenate; type: in vitro ADME; conditions: 50 μg test compound, 33% (w/v) liver homogenate, 37° C., read-out: T1/2 Dog Liver Homogenate
Method: as §3

T1 sequence (H0W3H1 1-470): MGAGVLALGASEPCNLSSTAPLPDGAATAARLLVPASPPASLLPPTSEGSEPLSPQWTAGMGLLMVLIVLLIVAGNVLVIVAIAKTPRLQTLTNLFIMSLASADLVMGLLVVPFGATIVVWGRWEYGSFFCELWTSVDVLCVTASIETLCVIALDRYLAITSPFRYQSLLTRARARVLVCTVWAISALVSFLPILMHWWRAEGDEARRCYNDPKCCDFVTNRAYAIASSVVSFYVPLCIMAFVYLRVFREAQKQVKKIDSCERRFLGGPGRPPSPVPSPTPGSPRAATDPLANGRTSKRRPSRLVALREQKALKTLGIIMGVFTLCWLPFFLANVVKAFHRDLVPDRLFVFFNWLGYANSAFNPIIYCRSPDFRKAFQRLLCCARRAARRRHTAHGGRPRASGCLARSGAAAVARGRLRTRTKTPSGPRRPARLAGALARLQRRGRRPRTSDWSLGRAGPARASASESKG
T2 sequence (Q8K4Z4 whole entry): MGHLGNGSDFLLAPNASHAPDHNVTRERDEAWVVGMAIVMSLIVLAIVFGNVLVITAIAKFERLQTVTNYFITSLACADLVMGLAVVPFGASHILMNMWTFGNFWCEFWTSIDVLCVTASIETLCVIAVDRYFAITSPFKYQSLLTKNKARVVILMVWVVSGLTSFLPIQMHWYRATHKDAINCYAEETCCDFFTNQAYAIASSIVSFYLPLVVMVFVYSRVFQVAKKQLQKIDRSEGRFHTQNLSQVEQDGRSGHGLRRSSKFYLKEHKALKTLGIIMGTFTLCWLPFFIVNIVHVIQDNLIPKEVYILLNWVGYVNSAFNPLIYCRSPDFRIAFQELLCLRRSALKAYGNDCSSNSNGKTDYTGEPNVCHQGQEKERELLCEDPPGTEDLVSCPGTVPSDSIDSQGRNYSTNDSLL

| SMILES | Kb [1] [nM] | Kb [3] [nM] | pA2 Atria [1] | pA2 Trachea [3] | half-life [6] [min] | half-life [7] [min] | half-life [8] [min] | Cardioselectivity KB (Trachea)/KB (Atria) [2] | Recovery Times 50% [4] [min] | Recovery Times 80% [4] [min] | Recovery Times 100% [4] [min] | ED50 [4] [mg/kg] | 80% Recovery Time [5] [min] | % I (Percent inhibition of heart rate response to isoproterenol) [5] [%] |
| --- | --- | --- | --- | --- | --- | --- | --- | --- | --- | --- | --- | --- | --- | --- |
| COc1ccc(CCNCC(O)C(=O)Oc2ccccc2)cc1OC (stereo not drawn) [Example I, N-(3,4-Dimethoxyphenethyl)-N-[(2-hydroxy-2-phenoxycarbonyl)ethyl-]amine Hydrochloride] | 1260 | 1260 | – | – | – | – | – | 1 | 6 ± 1 | 11 ± 1 | 16 ± 2 | 3.5 ± 0.5 | – | – |
| CC(=O)Nc1ccc(C(=O)OCC(O)CNC(C)C)cc1 (stereo not drawn) [Example LXII, [2-Hydroxy-3-(isopropylamino)]propyl 4-(acetamido)benzoate hydrochloride] | 1580 | 6310 | – | – | – | – | – | 4 | – | – | – | – | – | – |
| COc1ccc(CCNCC(O)COC(=O)c2ccccc2)cc1OC (stereo not drawn) [Example VII] | 100 | 501 | – | – | – | – | – | 5 | – | – | – | – | 29 ± 5 | 45 ± 2 |
| COc1ccc(CCNCC(O)COC(=O)c2ccc(C)cc2)cc1OC (stereo not drawn) [Example XI] | 251 | 1000 | – | – | – | – | – | 4 | 8 ± 1 | 16 ± 2 | 25 ± 3 | 17.2 ± 5.8 | – | – |
| CC(C)NCC(O)COC(=O)c1ccc(F)cc1 (stereo not drawn) [Example XX] | 251 | 50.1 | – | – | 3.5 ± 0.9 | 4 | – | – | – | – | – | – | – | – |
| COc1ccc(CCNCC(O)COC(=O)c2ccccc2Cl)cc1OC (stereo not drawn) [XIII] | 15.8 | 31.6 | – | – | – | – | – | 2 | 7 | 12 ± 1 | 24 | 2 ± 0.6 | – | – |
| Cc1cccc(C(=O)OCC(O)CNC(C)(C)C)c1 (stereo not drawn) [XLII] | – | – | – | – | 5.5 ± 2.6 | 150 | – | – | – | – | – | – | – | – |
| CC(C)(C)NCC(O)COC(=O)c1ccc(F)cc1 (stereo not drawn) [XL] | – | – | – | – | 11 ± 5 | 13 | – | – | – | – | – | – | – | – |
| COc1ccc(C(=O)OCC(O)CNC(C)C)cc1 (stereo not drawn) [XXIII] | 1000 | 501 | – | – | 55 ± 5 | 150 ± 30 | 37 ± 20 | – | – | – | – | – | > 60 | 67 ± 6 |
| COc1ccc(CCNCC(O)COC(=O)c2ccccc2F)cc1OC (stereo not drawn) [XXXIII] | 794 | 2000 | – | – | – | – | – | 2.5 | – | – | – | – | – | – |
| COc1ccc(CCNCC(O)COC(=O)c2cccc(F)c2)cc1OC (stereo not drawn) [XXXIV] | 398 | 631 | – | – | – | – | – | 2 | – | – | – | – | – | – |
| CC(C)(C)NCC(O)COC(=O)c1ccccc1F (stereo not drawn) [XXXIX] | 158 | 10 | – | – | 1.4 ± 1 | 6 ± 2 | 17 ± 7 | – | – | – | – | – | 17 ± 3 | 60 ± 2 |
| CC(C)(C)NCC(O)COC(=O)c1ccccc1Cl (stereo not drawn) [XXXVIII] | – | – | – | – | 6 ± 2 | 30 ± 2 | 68 ± 4 | – | – | – | – | – | – | 67 |
| CC(C)(C)NCC(O)COC(=O)c1ccccc1 (stereo not drawn) [XXXVII] | 158 | 20 | – | – | 5.3 ± 1 | 5.5 | – | – | – | – | – | – | > 60 | 64 ± 5 |
| COc1ccc(CCNCC(O)COC(=O)c2ccc(F)cc2)cc1OC (stereo not drawn) [XXXV] | 100 | 200 | – | – | – | – | – | 2 | – | – | – | – | > 60 | 59 |

Second part, led by results:

| Kb [1] [nM] | Kb [3] [nM] | pA2 Atria [1] | pA2 Trachea [3] | half-life [6] [min] | half-life [7] [min] | half-life [8] [min] | SMILES | Cardioselectivity KB (Trachea)/KB (Atria) [2] | Recovery Times 50% [4] [min] | Recovery Times 80% [4] [min] | Recovery Times 100% [4] [min] | ED50 [4] [mg/kg] | 80% Recovery Time [5] [min] | % I (Percent inhibition of heart rate response to isoproterenol) [5] [%] |
| --- | --- | --- | --- | --- | --- | --- | --- | --- | --- | --- | --- | --- | --- | --- |
| – | – | 6.3 | 7.2 | 2.3 ± 0.6 | 6.8 ± 2 | 8 ± 3.5 | CC(C)NCC(O)COC(=O)c1ccccc1 (stereo not drawn) [Example VI, [3-(Isopropylamino)-2-hydroxy]propyl Benzoate Hydrochloride] | – | 7 ± 2 | 14 ± 3 | 21 ± 3 | 3.4 ± 1.1 | 26 ± 8 | 63 ± 8 |
| – | – | – | – | 1.7 ± 0.6 | 28 ± 15 | 12 ± 4 | CC(C)NCC(O)COC(=O)c1ccccc1Cl (stereo not drawn) [Example XII, [3-(Isopropylamino)-2-hydroxy]propyl 2-chlorobenzoate hydrochloride] | – | 19 | 30 | 51 | 1.75 | – | – |
| 158 | 158 | – | – | 6 | 67 ± 24 | 10 ± 4 | Cc1ccc(C(=O)OCC(O)CNC(C)C)cc1 (stereo not drawn) [Example X] | 1 | 11.0 | 20 ± 2 | 30.0 | 3.1 ± 0.3 | – | – |
| – | 100 | – | – | 8 ± 4 | 50 | – | CC(C)NCC(O)COC(=O)c1cccc(F)c1 (stereo not drawn) [XIX] | – | – | – | – | – | – | – |
| – | – | – | – | > 180 | > 180 | – | Cc1ccccc1C(=O)OCC(O)CNC(C)(C)C (stereo not drawn) [XLI] | – | – | – | – | – | – | – |
| – | 79.4 | – | – | 1.7 ± 0.6 | 7 | – | CC(C)NCC(O)COC(=O)c1ccccc1F (stereo not drawn) [XVIII] | – | – | 8 ± 1 | – | 1.5 | 25 ± 9 | 46 ± 5 |
| – | – | – | – | > 180 | > 180 | 147 ± 69 | Cc1ccccc1C(=O)OCC(O)CNC(C)C (stereo not drawn) [XVII] | – | – | – | – | – | > 60 | 83 |
